According to the supplement of paper PMC10307832:

Key:
Assay in all cases: relative viability (nuclei count vs DMSO), 5 days (fraction); higher = more cells survive
[1] = compound: CCn1c(-c2nonc2N)nc2c(C#CC(C)(C)O)ncc(OC[C@H]3CCCNC3)c21 + O=C(c1cc(Cc2n[nH]c(=O)c3ccccc23)ccc1F)N1CCN(C(=O)C2CC2)CC1 [Olaparib] (partner 8 µM)
Procedure, shortened: (§1)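 Lung cancer cell lines in 1536-well plates got either a single drug or a fixed anchor-drug dose together with five library-drug doses (not always all listed) in √10 steps, by pin tool, on the day after seeding. Nuclei were counted after 5 days, and relative viability is the treated-to-vehicle ratio of nuclei counts. Values are medians of duplicate plates.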

BAM7 + Luminespib = compound: CCOC1=CC=CC=C1N=NC2=C(NN(C2=O)C3=NC(=CS3)C4=CC=CC=C4)C [BAM7] + CCNC(=O)c1noc(-c2cc(C(C)C)c(O)cc2O)c1-c1ccc(CN2CCOCC2)cc1 [Luminespib] (partner 0.01 µM)
Procedure, shortened: as §1

BAM7 + Trametinib = compound: CCOC1=CC=CC=C1N=NC2=C(NN(C2=O)C3=NC(=CS3)C4=CC=CC=C4)C [BAM7] + CC(=O)Nc1cccc(-n2c(=O)n(C3CC3)c(=O)c3c(Nc4ccc(I)cc4F)n(C)c(=O)c(C)c32)c1 [Trametinib] (partner 0.02 µM)
Procedure, shortened: as §1

[2] = compound: CCn1c(-c2nonc2N)nc2c(C#CC(C)(C)O)ncc(OC[C@H]3CCCNC3)c21 + CS(=O)(=O)N1CCN(Cc2cc3nc(-c4cccc5[nH]ncc45)nc(N4CCOCC4)c3s2)CC1 [Pictilisib] (partner 1 µM)
Procedure, shortened: as §1

Row | Cell Line | relative viability ([1]; first compound 0.01 µM) | relative viability ([1]; first compound 0.03162 µM) | relative viability ([1]; first compound 0.1 µM) | relative viability ([1]; first compound 0.3162 µM) | relative viability ([1]; first compound 1 µM) | relative viability (BAM7 + Luminespib; first compound 0.5 µM) | relative viability (BAM7 + Luminespib; first compound 5 µM) | relative viability (BAM7 + Luminespib; first compound 15.81 µM) | relative viability (BAM7 + Luminespib; first compound 50 µM) | relative viability (BAM7 + Trametinib; first compound 0.5 µM) | relative viability (BAM7 + Trametinib; first compound 5 µM) | relative viability (BAM7 + Trametinib; first compound 15.81 µM) | relative viability (BAM7 + Trametinib; first compound 50 µM) | relative viability ([2]; first compound 0.01 µM) | relative viability ([2]; first compound 0.03162 µM) | relative viability ([2]; first compound 0.1 µM) | relative viability ([2]; first compound 0.3162 µM) | relative viability ([2]; first compound 1 µM)
1 | 201T | 0.855 | 0.861 | 0.838 | 0.801 | 0.827 | 0.984 | 1.11 | 0.793 | 1.01 | 0.742 | 0.738 | 0.71 | 0.708 | 0.722 | 0.667 | 0.701 | 0.644 | 0.723
2 | A549 | 0.407 | 0.351 | 0.318 | 0.301 | 0.257 |  |  |  |  |  |  |  |  | 0.505 | 0.536 | 0.471 | 0.334 | 0.361
3 | A-427 | 0.737 | 0.203 | 0.75 | 0.683 | 0.709 | 0.949 | 0.715 | 0.886 | 1.03 | 0.765 | 0.809 | 0.752 | 0.911 | 0.754 | 0.649 | 0.747 | 0.732 | 0.554
4 | ABC-1 | 0.684 |  | 0.977 | 1.05 | 1.03 | 0.291 | 0.496 | 0.469 | 0.773 |  |  |  |  | 0.64 | 0.862 | 0.73 | 0.569 | 0.634
5 | BEN | 1.14 | 1.19 | 1.15 | 0.919 | 0.966 | 0.444 | 0.494 | 0.382 | 0.272 | 1.04 | 1.1 | 0.851 | 1.05 | 0.565 | 0.584 | 0.489 | 0.574 | 0.596
6 | CAL-12T | 0.599 | 0.708 | 0.72 | 0.699 | 0.729 | 0.327 | 0.374 | 0.491 | 0.508 | 0.381 | 0.333 | 0.303 | 0.384 | 0.327 | 0.374 | 0.351 | 0.306 | 0.329
7 | COR-L23 | 0.329 | 0.429 | 0.357 | 0.379 | 0.376 | 0.635 | 0.661 | 0.601 | 0.647 | 0.519 | 0.58 | 0.614 | 0.657 | 0.794 | 0.759 | 0.727 | 0.705 | 0.674
8 | COR-L 105 | 0.658 | 0.759 | 0.689 | 0.696 | 1.19 | 0.668 | 0.892 | 0.706 | 0.734 | 0.404 | 0.525 | 0.466 | 0.272 | 0.428 | 0.345 | 0.333 | 0.549 | 0.379
9 | Calu-6 | 0.546 | 0.589 | 0.605 | 0.558 | 0.644 |  |  |  |  |  |  |  |  | 0.886 | 0.973 | 0.946 | 0.942 | 0.909
10 | ChaGo-K-1 | 0.397 | 0.443 | 0.408 | 0.408 | 0.398 | 0.509 | 0.573 | 0.58 | 0.613 | 0.894 | 0.895 | 0.853 | 0.842 | 0.824 | 0.601 | 0.7 | 0.756 | 0.839
11 | EBC-1 | 0.652 | 0.706 | 0.676 | 0.516 | 0.557 |  |  |  |  |  |  |  |  | 0.41 | 0.386 | 0.32 | 0.343 | 0.262
12 | EKVX | 0.89 | 0.986 | 0.926 | 0.768 | 0.757 | 0.909 | 0.925 | 0.618 | 0.803 | 0.474 | 0.301 | 0.294 | 0.308 | 0.466 | 0.468 | 0.425 | 0.411 | 0.463
13 | EMC-BAC-2 | 0.457 | 0.501 | 0.503 | 0.454 | 0.468 | 1.13 | 1.28 | 1.12 | 1.15 | 0.941 | 0.944 | 0.941 | 1.02 | 0.563 | 0.51 | 0.497 | 0.493 | 0.528
14 | EPLC-272H | 0.833 | 0.853 | 0.641 | 0.56 | 0.507 | 0.317 |  | 0.317 | 0.507 | 0.292 | 0.31 | 0.252 | 0.28 | 0.287 | 0.282 | 0.286 | 0.301 | 0.314
15 | H3255 | 0.571 | 0.59 | 0.638 | 0.483 | 0.564 | 0.801 | 1.12 | 0.787 | 1.03 | 0.539 | 0.607 | 0.507 | 0.555 | 0.457 | 0.526 | 0.421 | 0.465 | 0.486
16 | HARA | 0.909 | 0.903 | 0.808 | 0.687 | 0.763 | 0.678 | 0.868 | 0.682 | 0.66 | 0.827 | 0.886 | 0.607 | 1.13 | 0.474 | 0.359 | 0.376 | 0.458 | 0.419
17 | HCC-15 | 0.691 | 0.735 | 0.803 | 0.672 | 0.628 | 0.338 | 0.439 | 0.4 | 0.187 | 0.341 | 0.374 | 0.331 | 0.384 | 0.689 | 0.724 | 0.685 | 0.738 | 0.743
18 | HCC-44 | 0.995 | 1.02 | 0.977 | 0.955 | 0.994 | 1.38 | 1.07 | 1.03 | 0.957 | 1.07 | 1.11 | 0.983 | 1.12 | 0.613 | 0.562 | 0.477 | 0.679 | 0.556
19 | HCC-78 | 0.739 | 0.732 | 0.827 | 0.794 | 0.564 |  |  |  |  | 0.579 | 0.805 | 0.689 | 0.819 | 0.191 | 0.217 | 0.194 | 0.187 | 0.177
